# Experimental data reported in ChEMBL document CHEMBL4800722, “Data for DCP probe BI 605906” (2021).
# Columns and labels:
# [1] = target: Serine/threonine-protein kinase BRSK2 (Homo sapiens) (UniProt Q8IWQ3); experiment: BRSK2 Invitrogen Lab (UK) kinase screen (BI); details: Compound concentration 1.0 uM
# [2] = target: Dual specificity tyrosine-phosphorylation-regulated kinase 1A (Homo sapiens) (UniProt Q13627); experiment: DYRK1A DUNDEE kinase screen (BI); details: Rattus norvegicus; Compound concentration 10.0 uM
# [3] = target: G protein-coupled receptor kinase 3 (Homo sapiens) (UniProt P35626); details: Compound concentration 1.0 uM
# [4] = target: GABA-A receptor; anion channel (Rattus norvegicus) (UniProt O09028+P15431+P18506+P18508+P19969+P20236+P23574+P23576+P28471+P28473+P30191+P62813+P63079+P63138+Q91ZM7+Q9ES14); details: Compound concentration 10.0 uM
# [5] = target: Sodium/potassium-transporting ATPase (Sus scrofa) (UniProt P05027+P05024+D2WKD8+D2WKD7+F1ST41); details: Compound concentration 10.0 uM
# [6] = target: Dual specificity protein kinase CLK4 (Homo sapiens) (UniProt Q9HAZ1); experiment: CLK4 Invitrogen Lab (UK) kinase screen (BI); details: Compound concentration 1.0 uM
# [7] = target: Sodium-dependent noradrenaline transporter (Homo sapiens) (UniProt P23975); details: Compound concentration 10.0 uM
# [8] = target: Serine/threonine-protein kinase 38-like (Homo sapiens) (UniProt Q9Y2H1); experiment: STK38L (NDR2) Invitrogen Lab (UK) kinase screen (BI); details: Compound concentration 1.0 uM
# [9] = target: Phosphatidylinositol 4,5-bisphosphate 3-kinase catalytic subunit gamma isoform (Homo sapiens) (UniProt P48736); experiment: PIK3CG Invitrogen Lab (UK) kinase screen (BI); details: Compound concentration 1.0 uM
# [10] = target: Tyrosine-protein kinase Yes (Homo sapiens) (UniProt P07947); experiment: YES1 Invitrogen Lab (UK) kinase screen (BI); details: Compound concentration 1.0 uM
# [11] = target: Testis-specific serine/threonine-protein kinase 2 (Homo sapiens) (UniProt Q96PF2); details: Compound concentration 1.0 uM
# [12] = target: Serine/threonine-protein kinase MRCK alpha (Homo sapiens) (UniProt Q5VT25); details: Compound concentration 1.0 uM
# [13] = target: Kappa-type opioid receptor (Homo sapiens) (UniProt P41145); details: Compound concentration 10.0 uM
# [14] = target: Calcium/calmodulin-dependent protein kinase kinase 2 (Homo sapiens) (UniProt Q96RR4); details: Compound concentration 1.0 uM
# [15] = target: Phosphatidylinositol 4-phosphate 5-kinase type-1 gamma (Homo sapiens) (UniProt O60331); details: Compound concentration 1.0 uM
# [16] = target: Histamine H4 receptor (Homo sapiens) (UniProt Q9H3N8); details: Compound concentration 10.0 uM
# [17] = system: Receptor-type tyrosine-protein kinase FLT3 (Homo sapiens), P36888 [UNDEFINED MUTATION]; details: Compound concentration 1.0 uM
# [18] = target: Cyclin-dependent kinase 7 (Homo sapiens) (UniProt P50613); details: Compound concentration 1.0 uM
# [19] = target: Interleukin-1 receptor-associated kinase 3 (Homo sapiens, UniProt Q9Y616); experiment: Dose response measurement (IRAK3)
# [20] = target: Aurora kinase A (Homo sapiens) (UniProt O14965)
# [21] = target: 5-hydroxytryptamine receptor 1E (Homo sapiens) (UniProt P28566); details: Compound concentration 10.0 uM
# [22] = target: Amine oxidase [flavin-containing] A (MAOA) (Homo sapiens, UniProt P21397); experiment: MAOA Eurofins SafetyScreen44 (BI); design: mode of action inhibitor; details: compound concentration 10 uM, read-out: % Ctrl
# [23] = target: Calcium/calmodulin-dependent protein kinase type II subunit beta (Homo sapiens) (UniProt Q13554); details: Compound concentration 1.0 uM
# [24] = target: Aurora kinase C (Homo sapiens) (UniProt Q9UQB9); details: Compound concentration 1.0 uM
# [25] = target: Tyrosine-protein kinase Fer (Homo sapiens) (UniProt P16591); details: Compound concentration 1.0 uM
# [26] = target: cGMP-dependent protein kinase 2 (Homo sapiens) (UniProt Q13237); details: Compound concentration 1.0 uM
# [27] = target: MAP kinase-interacting serine/threonine-protein kinase 2 (Homo sapiens) (UniProt Q9HBH9); experiment: MNK2 ALPHA DUNDEE kinase screen (BI); details: Compound concentration 10.0 uM
# [28] = target: Protein kinase C gamma type (Homo sapiens) (UniProt P05129); experiment: PRKCG Invitrogen Lab (UK) kinase screen (BI); details: Compound concentration 1.0 uM
# [29] = target: Ephrin type-A receptor 3 (Homo sapiens) (UniProt P29320); experiment: EPHA3 Invitrogen Lab (UK) kinase screen (BI); details: Compound concentration 1.0 uM
# [30] = target: 3-phosphoinositide-dependent protein kinase 1 (Homo sapiens) (UniProt O15530); details: Compound concentration 1.0 uM
# [31] = target: CDK8/Cyclin C (Homo sapiens) (UniProt P49336+P24863); details: Compound concentration 1.0 uM
# [32] = target: Serine/threonine-protein kinase BRSK1 (Homo sapiens) (UniProt Q8TDC3); details: Compound concentration 1.0 uM
# [33] = target: Alpha-2C adrenergic receptor (Homo sapiens) (UniProt P18825); details: Compound concentration 10.0 uM
# [34] = target: Sodium-dependent dopamine transporter (Homo sapiens, UniProt Q01959); details: Compound concentration 10.0 uM
# [35] = target: Serine/threonine-protein kinase WNK3 (Homo sapiens) (UniProt Q9BYP7); experiment: WNK3 Invitrogen Lab (UK) kinase screen (BI); details: Compound concentration 1.0 uM
# [36] = target: Macrophage-stimulating protein receptor (Homo sapiens) (UniProt Q04912); details: Compound concentration 1.0 uM
# [37] = target: Serine/threonine-protein kinase/endoribonuclease IRE2 (Homo sapiens) (UniProt Q76MJ5); experiment: ERN2 Invitrogen Lab (UK) kinase screen (BI); details: Compound concentration 1.0 uM
# [38] = target: Ribosomal protein S6 kinase beta-1 (Homo sapiens) (UniProt P23443)
# [39] = target: Calcitonin-gene-related peptide receptor, CALCRL/RAMP1 (Homo sapiens) (UniProt O60894+Q16602)
# [40] = target: Cyclin-dependent kinase 19 (Homo sapiens) (UniProt Q9BWU1); details: Compound concentration 1.0 uM
# [41] = target: Cannabinoid receptor 2 (Homo sapiens) (UniProt P34972); details: Compound concentration 10.0 uM
# Chain of Aurora kinase A (Homo sapiens) (O14965 whole entry): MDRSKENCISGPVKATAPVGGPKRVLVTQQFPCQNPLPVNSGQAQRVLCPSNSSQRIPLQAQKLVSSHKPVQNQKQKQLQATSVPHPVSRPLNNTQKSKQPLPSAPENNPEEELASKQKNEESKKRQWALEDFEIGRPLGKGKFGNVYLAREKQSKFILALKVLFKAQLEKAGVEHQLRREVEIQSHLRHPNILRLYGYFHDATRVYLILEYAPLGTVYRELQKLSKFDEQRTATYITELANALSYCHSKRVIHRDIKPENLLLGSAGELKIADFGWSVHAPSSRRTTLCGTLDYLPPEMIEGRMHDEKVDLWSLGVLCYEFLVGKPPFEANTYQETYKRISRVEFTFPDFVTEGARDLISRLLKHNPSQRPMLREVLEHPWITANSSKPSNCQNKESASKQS
# Chain of Ribosomal protein S6 kinase beta-1 (Homo sapiens) (P23443 whole entry, looked up): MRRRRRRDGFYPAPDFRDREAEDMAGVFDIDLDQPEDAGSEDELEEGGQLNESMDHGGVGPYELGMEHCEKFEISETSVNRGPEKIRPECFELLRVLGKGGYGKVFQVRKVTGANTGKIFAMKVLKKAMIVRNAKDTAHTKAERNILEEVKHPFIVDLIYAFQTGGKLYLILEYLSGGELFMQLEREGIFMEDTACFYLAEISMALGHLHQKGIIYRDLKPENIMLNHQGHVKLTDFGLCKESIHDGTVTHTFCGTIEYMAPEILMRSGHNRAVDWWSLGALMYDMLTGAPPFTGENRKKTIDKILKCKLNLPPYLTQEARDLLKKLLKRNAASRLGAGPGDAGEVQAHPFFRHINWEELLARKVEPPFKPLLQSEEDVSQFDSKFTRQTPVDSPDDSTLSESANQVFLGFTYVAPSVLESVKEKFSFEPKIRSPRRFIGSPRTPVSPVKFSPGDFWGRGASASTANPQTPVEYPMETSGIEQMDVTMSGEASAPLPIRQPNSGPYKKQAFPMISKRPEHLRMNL
# Chain of 3-phosphoinositide-dependent protein kinase 1 (Homo sapiens) (O15530 whole entry, looked up): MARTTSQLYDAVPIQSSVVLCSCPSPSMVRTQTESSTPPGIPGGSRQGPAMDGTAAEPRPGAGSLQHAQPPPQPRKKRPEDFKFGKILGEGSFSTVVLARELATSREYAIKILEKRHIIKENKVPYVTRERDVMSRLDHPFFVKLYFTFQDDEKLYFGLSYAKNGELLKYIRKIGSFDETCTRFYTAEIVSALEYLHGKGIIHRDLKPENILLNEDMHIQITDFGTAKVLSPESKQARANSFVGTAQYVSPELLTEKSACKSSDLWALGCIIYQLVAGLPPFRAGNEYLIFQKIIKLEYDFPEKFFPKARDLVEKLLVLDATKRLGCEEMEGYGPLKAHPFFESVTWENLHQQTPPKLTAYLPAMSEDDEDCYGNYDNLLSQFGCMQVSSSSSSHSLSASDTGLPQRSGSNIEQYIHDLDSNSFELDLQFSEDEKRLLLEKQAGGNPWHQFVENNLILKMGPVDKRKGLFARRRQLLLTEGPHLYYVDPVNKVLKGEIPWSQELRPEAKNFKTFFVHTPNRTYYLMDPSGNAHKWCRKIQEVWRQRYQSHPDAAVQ
# Chain of Alpha-2C adrenergic receptor (Homo sapiens) (P18825 whole entry): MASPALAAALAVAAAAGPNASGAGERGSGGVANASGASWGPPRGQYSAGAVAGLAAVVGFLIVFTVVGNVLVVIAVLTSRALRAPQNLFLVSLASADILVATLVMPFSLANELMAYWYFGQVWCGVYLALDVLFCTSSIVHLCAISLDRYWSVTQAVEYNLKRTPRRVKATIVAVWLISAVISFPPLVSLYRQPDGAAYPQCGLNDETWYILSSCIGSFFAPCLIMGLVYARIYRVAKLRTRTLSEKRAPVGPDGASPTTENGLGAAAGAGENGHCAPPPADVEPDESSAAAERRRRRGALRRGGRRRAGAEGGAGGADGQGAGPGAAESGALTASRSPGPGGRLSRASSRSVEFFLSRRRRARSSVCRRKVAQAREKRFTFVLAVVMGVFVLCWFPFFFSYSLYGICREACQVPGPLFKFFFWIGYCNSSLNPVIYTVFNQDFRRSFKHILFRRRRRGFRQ
# Chain of Testis-specific serine/threonine-protein kinase 2 (Homo sapiens) (Q96PF2 whole entry): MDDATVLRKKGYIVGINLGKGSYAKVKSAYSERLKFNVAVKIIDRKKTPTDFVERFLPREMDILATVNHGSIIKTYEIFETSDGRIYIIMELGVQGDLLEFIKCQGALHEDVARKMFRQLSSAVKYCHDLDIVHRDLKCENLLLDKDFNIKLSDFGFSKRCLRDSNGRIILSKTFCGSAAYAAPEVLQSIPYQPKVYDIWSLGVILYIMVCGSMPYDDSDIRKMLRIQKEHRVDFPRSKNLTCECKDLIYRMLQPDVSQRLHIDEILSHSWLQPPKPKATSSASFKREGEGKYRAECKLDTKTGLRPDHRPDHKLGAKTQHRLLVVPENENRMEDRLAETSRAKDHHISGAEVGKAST
# Chain of Dual specificity protein kinase CLK4 (Homo sapiens) (Q9HAZ1 whole entry, looked up): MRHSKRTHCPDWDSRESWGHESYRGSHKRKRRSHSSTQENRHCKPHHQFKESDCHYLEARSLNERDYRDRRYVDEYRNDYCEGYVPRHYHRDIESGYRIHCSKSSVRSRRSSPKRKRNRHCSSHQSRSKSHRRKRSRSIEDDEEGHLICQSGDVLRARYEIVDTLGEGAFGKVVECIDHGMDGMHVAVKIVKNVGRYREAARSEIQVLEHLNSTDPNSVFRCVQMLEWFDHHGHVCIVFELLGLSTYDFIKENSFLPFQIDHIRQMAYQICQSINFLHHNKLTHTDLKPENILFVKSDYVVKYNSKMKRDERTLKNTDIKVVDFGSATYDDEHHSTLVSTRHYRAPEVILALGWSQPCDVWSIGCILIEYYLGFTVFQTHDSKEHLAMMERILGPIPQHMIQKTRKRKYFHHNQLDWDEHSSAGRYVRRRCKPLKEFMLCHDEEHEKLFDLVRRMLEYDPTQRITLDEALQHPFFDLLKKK
# Chain of Ephrin type-A receptor 3 (Homo sapiens) (P29320 whole entry): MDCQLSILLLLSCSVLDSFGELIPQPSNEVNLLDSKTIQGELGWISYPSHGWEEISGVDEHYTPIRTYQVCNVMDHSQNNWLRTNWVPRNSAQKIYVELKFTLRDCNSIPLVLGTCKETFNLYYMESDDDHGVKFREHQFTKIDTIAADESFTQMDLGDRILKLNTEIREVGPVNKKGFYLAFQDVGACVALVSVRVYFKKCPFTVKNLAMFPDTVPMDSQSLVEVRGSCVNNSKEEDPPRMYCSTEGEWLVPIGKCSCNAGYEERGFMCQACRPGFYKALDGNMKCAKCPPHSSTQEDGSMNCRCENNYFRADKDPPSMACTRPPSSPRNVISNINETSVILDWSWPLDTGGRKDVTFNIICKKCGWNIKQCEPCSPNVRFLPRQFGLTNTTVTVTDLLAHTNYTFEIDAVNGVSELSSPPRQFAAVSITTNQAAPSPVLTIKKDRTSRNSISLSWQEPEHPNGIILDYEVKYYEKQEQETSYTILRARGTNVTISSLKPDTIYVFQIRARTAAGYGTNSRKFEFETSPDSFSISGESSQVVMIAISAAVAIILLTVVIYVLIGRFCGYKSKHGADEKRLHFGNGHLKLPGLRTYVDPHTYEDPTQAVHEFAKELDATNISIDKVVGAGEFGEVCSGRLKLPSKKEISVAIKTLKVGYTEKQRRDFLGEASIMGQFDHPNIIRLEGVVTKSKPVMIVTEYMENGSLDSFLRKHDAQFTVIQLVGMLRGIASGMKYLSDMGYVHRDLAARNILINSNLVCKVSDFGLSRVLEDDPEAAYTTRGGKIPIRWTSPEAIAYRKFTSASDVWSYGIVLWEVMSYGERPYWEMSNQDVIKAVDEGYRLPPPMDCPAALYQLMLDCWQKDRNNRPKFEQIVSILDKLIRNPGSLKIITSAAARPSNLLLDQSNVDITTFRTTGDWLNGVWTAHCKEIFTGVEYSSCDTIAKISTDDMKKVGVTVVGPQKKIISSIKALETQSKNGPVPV
# Chain of Tyrosine-protein kinase Yes (Homo sapiens) (P07947 2-543 limits assumed): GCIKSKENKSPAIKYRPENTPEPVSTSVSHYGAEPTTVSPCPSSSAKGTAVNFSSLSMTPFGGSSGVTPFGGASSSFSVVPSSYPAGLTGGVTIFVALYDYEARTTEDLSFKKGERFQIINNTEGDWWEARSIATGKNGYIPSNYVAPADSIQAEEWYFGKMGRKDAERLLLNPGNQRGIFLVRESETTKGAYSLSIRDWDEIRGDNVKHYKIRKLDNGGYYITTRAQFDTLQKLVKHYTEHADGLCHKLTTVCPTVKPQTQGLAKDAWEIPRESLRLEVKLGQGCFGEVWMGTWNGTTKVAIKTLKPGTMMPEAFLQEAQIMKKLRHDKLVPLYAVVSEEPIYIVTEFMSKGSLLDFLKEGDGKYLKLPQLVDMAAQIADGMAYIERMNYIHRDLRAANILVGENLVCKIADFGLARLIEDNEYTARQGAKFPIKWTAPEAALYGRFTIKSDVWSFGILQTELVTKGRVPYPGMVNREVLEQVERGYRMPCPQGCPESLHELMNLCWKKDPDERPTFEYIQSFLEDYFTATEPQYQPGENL
# Chain of Cyclin-dependent kinase 7 (Homo sapiens) (P50613 whole entry): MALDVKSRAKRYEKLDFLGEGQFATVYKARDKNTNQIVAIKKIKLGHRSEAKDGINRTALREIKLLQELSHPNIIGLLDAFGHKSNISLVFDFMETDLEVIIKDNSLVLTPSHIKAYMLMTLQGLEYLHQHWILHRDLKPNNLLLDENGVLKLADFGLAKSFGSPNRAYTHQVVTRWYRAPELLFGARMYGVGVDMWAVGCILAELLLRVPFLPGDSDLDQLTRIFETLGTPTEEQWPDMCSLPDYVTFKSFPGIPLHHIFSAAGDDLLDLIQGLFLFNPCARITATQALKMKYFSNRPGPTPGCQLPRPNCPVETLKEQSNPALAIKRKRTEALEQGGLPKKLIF
# Chain of Aurora kinase C (Homo sapiens) (Q9UQB9 whole entry): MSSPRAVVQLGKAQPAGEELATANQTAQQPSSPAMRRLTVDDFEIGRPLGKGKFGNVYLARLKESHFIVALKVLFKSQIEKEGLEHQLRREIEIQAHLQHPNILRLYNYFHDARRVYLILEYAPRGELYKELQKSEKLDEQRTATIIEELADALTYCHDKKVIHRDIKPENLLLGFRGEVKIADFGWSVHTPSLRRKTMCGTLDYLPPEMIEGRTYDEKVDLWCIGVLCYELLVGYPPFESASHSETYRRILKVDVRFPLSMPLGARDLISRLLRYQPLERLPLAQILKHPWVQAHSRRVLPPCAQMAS
structure (smiles),measurement,setting,value
CCC(F)(F)c1cc(N2CCC(S(C)(=O)=O)CC2)nc2sc(C(N)=O)c(N)c12 [BI-605906],residual activity,[1],102%
same,residual activity,[2],74.9%
same,residual activity,[3],96%
same,inhibition,[4],8.92%
same,residual activity,[5],105%
same,residual activity,[6],69%
same,inhibition,[7],8.84%
same,residual activity,[8],125%
same,residual activity,[9],102%
same,residual activity,[10],74%
same,residual activity,[11],91%
same,residual activity,[12],95%
same,inhibition,[13],8.09%
same,residual activity,[14],93%
same,residual activity,[15],96%
same,inhibition,[16],-1.66%
same,residual activity,[17],101%
same,residual activity,[18],99%
same,IC50,[19],921 nM (not active)
same,residual activity,[20]; Compound concentration 1.0 uM,93%
same,residual activity,[20]; Compound concentration 10.0 uM,38%
same,inhibition,[21],1.69%
same,activity at 10 µM,[22],68% (not active)
same,residual activity,[23],99%
same,residual activity,[24],95%
same,residual activity,[25],95%
same,residual activity,[26],108%
same,residual activity,[27],67.2%
same,residual activity,[28],102%
same,residual activity,[29],85%
same,residual activity,[30],82%
same,residual activity,[31],82%
same,residual activity,[32],92%
same,inhibition,[33],13.7%
same,inhibition,[34],2.35%
same,residual activity,[35],102%
same,residual activity,[36],105%
same,residual activity,[37],102%
same,residual activity,[38]; Compound concentration 1.0 uM,94%
same,residual activity,[38]; Compound concentration 10.0 uM,66%
same,residual activity,[39]; Compound concentration 10.0 uM,99%
same,residual activity,[39]; Compound concentration 100.0 uM,96%
same,residual activity,[40],87%
same,residual activity,[41],91%
